Test [1] concerns Eotaxin-3 release in human whole blood stimulated with IL-4. Briefly: Human Whole Blood Eotaxin-3 Assay (IL-4 stimulated eotaxin-3 release). As to conditions: IL-4 stimulation, 48 h, values given for compounds with >80% Emax, geometric mean. It counts as cell-based. Summed up:
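Eotaxin-3 (CCL26) release measured by MSD kit in plasma supernatant after 48 h IL-4 stimulation ([…]) of human whole blood. Compounds added in triplicate 4-fold dilutions 2 h before stimulation; 0.5% DMSO final, 37° C, 5% CO2.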

A further test has as its target T1, STAT6 (Homo sapiens, UniProt P42226).
T1 construct: These cells express endogenous STAT6; host or cells: HeLa LgBiT clone 4.14
T1 sequence (P42226 1-847): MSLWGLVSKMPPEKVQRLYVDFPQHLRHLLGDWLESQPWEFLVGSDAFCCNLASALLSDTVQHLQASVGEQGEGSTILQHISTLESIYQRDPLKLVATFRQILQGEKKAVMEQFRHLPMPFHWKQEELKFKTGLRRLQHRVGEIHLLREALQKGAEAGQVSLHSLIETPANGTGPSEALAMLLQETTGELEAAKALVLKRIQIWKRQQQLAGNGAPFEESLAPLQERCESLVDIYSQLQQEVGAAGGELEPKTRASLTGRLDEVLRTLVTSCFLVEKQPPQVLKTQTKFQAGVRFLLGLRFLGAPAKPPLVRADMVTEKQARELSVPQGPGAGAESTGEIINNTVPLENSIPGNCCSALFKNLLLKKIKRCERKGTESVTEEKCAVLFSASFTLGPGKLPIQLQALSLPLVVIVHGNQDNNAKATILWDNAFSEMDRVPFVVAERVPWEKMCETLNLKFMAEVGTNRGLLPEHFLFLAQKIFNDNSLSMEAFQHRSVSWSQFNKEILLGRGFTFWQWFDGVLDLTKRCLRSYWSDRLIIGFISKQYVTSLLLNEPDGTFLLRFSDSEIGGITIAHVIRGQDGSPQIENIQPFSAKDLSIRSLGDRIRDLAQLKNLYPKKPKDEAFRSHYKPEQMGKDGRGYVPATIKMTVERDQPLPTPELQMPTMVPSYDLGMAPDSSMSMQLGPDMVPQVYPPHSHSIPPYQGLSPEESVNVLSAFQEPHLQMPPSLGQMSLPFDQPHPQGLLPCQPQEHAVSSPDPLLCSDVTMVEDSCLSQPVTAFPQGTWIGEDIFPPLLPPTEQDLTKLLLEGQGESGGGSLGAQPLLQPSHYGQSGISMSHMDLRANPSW
Put plainly: Stat6 Degrader Assay (HiBiT based, HeLa LgBiT clone 4.14). It counts as cell-based. Particulars: HeLa LgBiT clone 4.14 HiBiT-STAT6, 4-24 h incubation; values given for compounds with >80% Emax; geometric mean; read-out: STAT6 degradation DC50. Summed up:
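Luminescence from HiBiT-STAT6 complementing stably expressed LgBiT in HeLa clone 4.14 reports remaining STAT6 protein. Cells (5000/well) exposed to compound for 4-24 h at 37° C; read 0.5 h after Nano-Glo addition. 100% degradation window set with 50 μM terfenadine; percent degradation plotted against concentration.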

15 compounds from US20250320206A1, “STAT6 DEGRADERS” (Gilead Sciences, Inc., priority 2024, published 2025) can be followed below.

Structures are written as SMILES. pEC50: −log10 of the molar value.

For `CNc1cc(=O)n(-c2ccnc3c2cc([C@H](C)N2CC=C(c4c(C)cc(C(=O)N5CCC(CN6CCN(Cc7cc8c(cc7F)N(C7CCC(=O)NC7=O)C(=O)C87CC7)CC6)CC5)cc4F)CC2)n3C)cc1F` (stereo partly drawn) [Example 3u152, 3-(6′-fluoro-5′-((4-((1-(3-fluoro-4-(1-((S)-1-(4-(5-fluoro-4-(methylamino)-2-oxopyridin-1 (2H)-yl)-1-methyl-1H-pyrrolo[2,3-b]pyridin-2-yl)ethyl)-1,2,3,6-tetrahydropyridin-4-yl)-5-methylbenzoyl)piperidin-4-yl)methyl)piperazin-1-yl)methyl)-2′-oxospiro[cyclopropane-1,3′-indolin]-1′-yl)piperidine-2,6-dione], the negative logarithm of the EC50 (pEC50) (usually −log10 of the EC50, conventionally taken in molar units) in test [1] was 7.88. Further, the DC50 – broadly, the concentration giving 50% degradation – on STAT6 was determined as 6.6 nM.
The matching figures for `CNc1ccn(-c2ccnc3c2cc(CN2CCC(c4c(F)cc(C(=O)N5CCC(CN6CCN(Cc7ccc8c(c7)C(C)(C)C(=O)N8C7CCC(=O)NC7=O)C[C@@H]6C)CC5)cc4F)CC2)n3C)c(=O)c1` (stereo partly drawn) [Example 3u204, 3-(5-(((S)-4-((1-(3,5-difluoro-4-(1-((1-methyl-4-(4-(methylamino)-2-oxopyridin-1 (2H)-yl)-1H-pyrrolo[2,3-b]pyridin-2-yl)methyl)piperidin-4-yl)benzoyl)piperidin-4-yl)methyl)-3-methyl-piperazin-1-yl)methyl)-3,3-dimethyl-2-oxoindolin-1-yl)piperidine-2,6-dione]: 8.34 and 2.5 nM.
`CNc1cc(=O)n(-c2ccnc3c2cc([C@H](C)N2CC=C(c4c(C)cc(C(=O)N5CCC(CN6CCN(Cc7ccc8c(c7)C(C)(C)C(=O)N8[C@@H]7CCC(=O)NC7=O)C[C@@H]6C)CC5)cc4F)CC2)n3C)cc1F` (single isomer, unassigned) [Example 3u174] showed a pEC50 in test [1] of 7.96. Further, the DC50 at STAT6 worked out at 3.8 nM.
In turn, `CNc1ccn(-c2ccnc3c2cc([C@H](C)N2CC=C(c4c(F)cc(C(=O)N5CCC(CN6CCN(Cc7ccc8c(c7)n(C7CC7)c(=O)n8C7CCC(=O)NC7=O)C[C@@H]6C)CC5)cc4F)CC2)n3C)c(=O)c1` (stereo partly drawn) [Example 3u210, 3-(3-cyclopropyl-5-(((S)-4-((1-(3,5-difluoro-4-(1-((S)-1-(1-methyl-4-(4-(methylamino)-2-oxopyridin-1 (2H)-yl)-1H-pyrrolo[2,3-b]pyridin-2-yl)ethyl)-1,2,3,6-tetrahydropyridin-4-yl)benzoyl)-piperidin-4-yl)methyl)-3-methylpiperazin-1-yl)methyl)-2-oxo-2,3-dihydro-1H-benzo[d]imidazol-1-yl)piperidine-2,6-dione] had a pEC50 in test [1] of 8.96. Also, at STAT6, the 50% degradation concentration (DC50) was found to be 0.5 nM.
For the compound `CNc1cc(=O)n(-c2ccnc3c2cc(CN2CCC(c4c(F)cc(C(=O)N5CCC(CN6CCN(Cc7ccc8c(c7)C(C)(C)C(=O)N8C7CCC(=O)NC7=O)CC6)CC5)cc4F)CC2)n3C)cc1F` (stereo not drawn) [Example 3u57, 3-(5-((4-((1-(3,5-difluoro-4-(1-((4-(5-fluoro-4-(methylamino)-2-oxopyridin-1 (2H)-yl)-1-methyl-1H-pyrrolo[2,3-b]pyridin-2-yl)methyl)piperidin-4-yl)benzoyl)piperidin-4-yl)methyl)piperazin-1-yl)methyl)-3,3-dimethyl-2-oxoindolin-1-yl)piperidine-2,6-dione], the pEC50 in test [1] was 7.60. Besides, the half-maximal degradation concentration (DC50) on STAT6 is 12 nM.
In turn, `CNc1ccn(-c2ccnc3c2cc(CN2CC=C(c4c(C)cc(C(=O)N5CCC(CN6CCN(Cc7ccc8c(c7)C(C)(C)C(=O)N8[C@H]7CCC(=O)NC7=O)C[C@@H]6C)CC5)cc4F)CC2)n3C)c(=O)c1` (single isomer, unassigned) [Example 3u179] gave a pEC50 in test [1] of 7.91. Further, the DC50 on STAT6 worked out at 6.1 nM.
The like results for `CNc1cc(=O)n(-c2ccnc3c2cc([C@H](C)N2CC=C(c4c(C)cc(C(=O)N5CCC(CN6CCN(c7ccc8c(c7)n(C)c(=O)n8C7CCC(=O)NC7=O)CC6)CC5)cc4F)CC2)n3C)cc1F` (stereo partly drawn) [Example 3u298, 3-(5-(4-((1-(3-fluoro-4-(1-((S)-1-(4-(5-fluoro-4-(methylamino)-2-oxopyridin-1 (2H)-yl)-1-methyl-1H-pyrrolo[2,3-b]pyridin-2-yl)ethyl)-1,2,3,6-tetrahydropyridin-4-yl)-5-methylbenzoyl)-piperidin-4-yl)methyl)piperazin-1-yl)-3-methyl-2-oxo-2,3-dihydro-1H-benzo[d]imidazol-1-yl)-piperidine-2,6-dione] were, in that order, 8.59 and 1.8 nM.
Compound `CNc1cc(=O)n(-c2ccnc3c2cc([C@H](C)N2CC=C(c4c(C)cc(C(=O)N5CCC(CN6CCN(c7ccc8c(c7)C7(CC7)C(=O)N8[C@@H]7CCC(=O)NC7=O)CC6)CC5)cc4F)CC2)n3C)cc1F` (single isomer, unassigned) [Example 3u292] gave a negative logarithm of the EC50 (pEC50) in test [1] of 8.16. In addition, the DC50 at STAT6 is 5.1 nM.
Compound `CNc1cc(=O)n(-c2ccnc3c2cc([C@H](C)N2CC=C(c4c(C)cc(C(=O)N5CCC(CN6CCN(Cc7cc8c(cc7F)N([C@H]7CCC(=O)NC7=O)C(=O)C87CC7)CC6)CC5)cc4F)CC2)n3C)cc1F` (single isomer, unassigned) [Example 3u154] had a pEC50 in test [1] of 8.00. The half-maximal degradation concentration (DC50) at STAT6 came to 6.4 nM.
The like results for `CNc1cc(=O)n(-c2ccnc3c2cc(CN2CCC(c4c(F)cc(C(=O)N5CCC(CN6CCN(Cc7ccc8c(c7)n(C)c(=O)n8[C@H]7CCC(=O)NC7=O)C[C@@H]6C)CC5)cc4F)CC2)n3C)cc1F` (single isomer, unassigned) [Example 3u61] were, in that order, 8.92 and 1.9 nM.
The like results for `CNc1cc(=O)n(-c2ccnc3c2cc(CN2CCC(c4c(F)cc(C(=O)N5CCC(CN6CCN(Cc7ccc8c(c7)n(C)c(=O)n8[C@@H]7CCC(=O)NC7=O)C[C@@H]6C)CC5)cc4F)CC2)n3C)cc1F` (single isomer, unassigned) [Example 3u62] were, in that order, 8.92 and 1.2 nM.
The matching figures for `CNc1cc(=O)n(-c2ccnc3c2cc(CN2CC=C(c4c(F)cc(C(=O)N5CCC(CN6CCN(Cc7ccc8c(c7)n(C)c(=O)n8C7CCC(=O)NC7=O)C[C@@H]6C)CC5)cc4F)CC2)n3C)cc1F` (stereo partly drawn) [Example 3u54, 3-(5-(((S)-4-((1-(3,5-difluoro-4-(1-((4-(5-fluoro-4-(methylamino)-2-oxopyridin-1 (2H)-yl)-1-methyl-1H-pyrrolo[2,3-b]pyridin-2-yl)methyl)-1,2,3,6-tetrahydropyridin-4-yl)benzoyl)piperidin-4-yl)methyl)-3-methylpiperazin-1-yl)methyl)-3-methyl-2-oxo-2,3-dihydro-1H-benzo[d]imidazol-1-yl)piperidine-2,6-dione]: 8.57 and 12 nM.
The compound `CNc1ccn(-c2ccnc3c2cc([C@H](C)N2CC=C(c4c(C)cc(C(=O)N5CCC(CN6CCN(Cc7ccc8c(c7)n(C)c(=O)n8[C@@H]7CCC(=O)NC7=O)CC6)CC5)cc4F)CC2)n3C)c(=O)c1` (single isomer, unassigned) [Example 3u157] had a pEC50 in test [1] of 9.40. Besides, on STAT6, the DC50 was 0.3 nM.
In the case of `C[C@H]1CN(Cc2ccc3c(c2)C2(CC2)C(=O)N3[C@@H]2CCC(=O)NC2=O)CCN1CC1CCN(C(=O)c2cc(F)c(C3=CCN([C@@H](C)c4cc5c(-n6cc(F)c7c(c6=O)CCN7)ccnc5n4C)CC3)c(F)c2)CC1` [Example 3u127, (R)-3-(5′-(((S)-4-((1-(3,5-difluoro-4-(1-((S)-1-(4-(7-fluoro-4-oxo-1,2,3,4-tetrahydro-5H-pyrrolo[3,2-c]pyridin-5-yl)-1-methyl-1H-pyrrolo[2,3-b]pyridin-2-yl)ethyl)-1,2,3,6-tetrahydropyridin-4-yl)benzoyl)piperidin-4-yl)methyl)-3-methylpiperazin-1-yl)methyl)-2′-oxospiro[cyclopropane-1,3′-indolin]-1′-yl)piperidine-2,6-dione], in test [1], the pEC50 is 7.83. Further, the DC50 at STAT6 turned out to be 5.4 nM.
In test [1], `CNc1cc(=O)n(-c2ccnc3c2cc([C@H](C)N2CCC(c4ccc(C(=O)N5CCC(CN6CCN(Cc7ccc8c(c7)C7(CC7)C(=O)N8C7CCC(=O)NC7=O)C[C@@H]6C)CC5)cc4)CC2)n3C)cc1F` (stereo partly drawn) [Example 3u36, 3-(5′-(((S)-4-((1-(4-(1-((S)-1-(4-(5-fluoro-4-(methylamino)-2-oxopyridin-1 (2H)-yl)-1-methyl-1H-pyrrolo[2,3-b]pyridin-2-yl)ethyl)piperidin-4-yl)benzoyl)piperidin-4-yl)methyl)-3-methylpiperazin-1-yl)methyl)-2′-oxospiro[cyclopropane-1,3′-indolin]-1′-yl)piperidine-2,6-dione] had a pEC50 of 8.48. Moreover, the DC50 at STAT6 was 1.4 nM.
